# Measured values from patent publication US9045505B2, “Nitric oxide donors” (University of Otago, priority 2006, dated 2015).
# Assays:
# [1] = test system: HeLa cells; assay: Cell hypoxia experiment, extracellular pO2 by fluorescence quenching oximetry; format: cell-based; settings: 1% O2, 30 min incubation, compared to untreated controls
# Method: FIG. 10 is a series of traces and graphs showing the effect of MitoSNAP on respiration in cells. (a-d) Jurkat cells (55×10^6 cells) were incubated in PBS supplemented with 25 mM Hepes pH 7.2 (NaOH), 1 mM sodium pyruvate, 10 μM neocuproine and 100 μM DTPA in the stirred 2.5 ml chamber of an oxygen electrode at 37° C. with 5 μM MitoSNAP (a), MitoNAP (b), SNAP (c) or MitoSNAP and FCCP (500 nM) (d). Where indicated 5 μM OxyHb was added. Traces show typical experiments that were repeated at least three times. Sections of the 02 electrode trace where OxyHb was added for (a) and (b) have been expanded 4-fold in the vertical dimension to facilitate inspection. […] Cellular pO2 values, measured by fluorescence quenching oximetry and expressed as mean±sd, are shown. […]
# HeLa cells were seeded and grown to 100% confluence with 15 ml medium/dish on 165 cm^2 dishes. […] Extracellular pO2 measurements were taken by fluorescence quenching oximetry (Oxylite-2000; Oxford Optronix). […]
# To evaluate the selective uptake of MitoSNAP by mitochondria within cells, the effect of MitoSNAP on respiration by Jurkat cells, a T lymphocyte cell line that grows in suspension, was measured using an O2 electrode (FIG. 10). […] Then the effects of a further 30 min incubation with MitoSNAP, MitoNAP or the mitochondrial inhibitor myxathiazol on the steady-state extracellular pO2 was assessed by fluorescence quenching oximetry (FIG. 10e).
# [2] = test system: rat liver mitochondria; assay: Membrane potential-dependent uptake into isolated mitochondria (TPP-selective electrode); format: biochemical
# Method: FIG. 8 is a trace showing the uptake of MitoSNAP and MitoNAP by energized mitochondria measured using an ion-selective electrode. For (a) and (b) mitochondria (2 mg protein/ml) were incubated in KCl buffer supplemented with rotenone in a stirred 3 ml chamber thermostatted at 37° C. and shielded from ambient light. An electrode selective for the TPP cation was inserted and calibrated by five sequential 1 μM additions of MitoNAP (a) or MitoSNAP (b). Succinate (10 mM) was then added to energize the mitochondria, followed by the uncoupler FCCP (0.5 μM). Rapid uptake of MitoNAP by energized mitochondria was observed and this was reversed by abolishing the membrane potential with the uncoupler FCCP (a). Energised mitochondria also rapidly accumulated MitoSNAP (b). However, in contrast to MitoNAP, uncoupling apparently led to only partial release of the accumulated MitoSNAP (b). This apparent incomplete release of MitoSNAP on uncoupling is presumably because MitoSNAP is converted to MitoNAP within mitochondria and this generates a different response from the electrode.
# Mitochondrial incubations were usually in KCl buffer (120 mM KCl, 10 mM HEPES, 1 mM EGTA, 100 μM N,N-bis(2-bis[carboxymethyl]aminoethyl) glycine (DTPA) and 10 μM neocuproine, pH 7.2) with 10 mM succinate and 4 μg/ml rotenone in the dark at 37° C., unless stated otherwise. An electrode selective for the TPP moiety of MitoSNAP and MitoNAP was made and used as described previously (Asin-Cayuela, J., Manas, A. R., James, A. M., Smith, R. A. & Murphy, M. P. Fine-tuning the hydrophobicity of a mitochondria-targeted antioxidant. FEBS Letts. 571, 9-16 (2004)). Respiration rates were measured in a Clark type O2 electrode (Rank Brothers, UK). To measure GSH and GSSG, mitochondria (1 mg protein/ml) were incubated with 0-10 μM MitoSNO1 or MitoNAP for 10 min, pelleted by centrifugation and the GSH and GSSG contents assessed by the recycling assay (Scarlett, J. L., Packer, M. A., Porteous, C. M. & Murphy, M. P. Alterations to glutathione and nicotinamide nucleotides during the mitochondrial permeability transition induced by peroxynitrite. Biochem. Pharmacol. 52, 1047-1055 (1996)). The measurement of exposed mitochondrial protein thiols is described below.
# Rat liver mitochondria (1 mg protein/ml) in KCl buffer was incubated at 37° C. with 5 μM MitoSNO. 1 μM additions of MitoSNO were made sequentially before addition of 10 mM succinate. 200 nM FCCP was then added to uncouple the mitochondria. The concentrations of O2 and MitoSNO in solution were measured simultaneously using a Clark-type O2 electrode in combination with an ion-selective electrode for triphenylphosphonium cation (TPP^+). […] This can be seen in FIG. 3.
# When succinate was added, the mitochondria started respiring and set up a Δψ, which caused a decrease in the MitoSNO concentration, as detected by the ion-selective electrode (FIG. 3). When the mitochondria were uncoupled by FCCP, a concomitant increase in the concentration of MitoSNO, or its derivatives, in the medium was detected by the ion-selective electrode. The amount of MitoSNO taken up into the mitochondria from the trace in FIG. 3 corresponds to ˜2.5 μM of the initial external concentration of 5 μM. Therefore 7.5 nmol MitoSNO have been taken up into 3 mg protein, and as the mitochondrial volume is ˜0.5 μl/mg protein (Brown, G. C. and Brand, M. D. Biochem J., 1985, 225, 399-405), the concentration of MitoSNO within mitochondria is ˜5 mM. This represents a 2000 fold concentration relative to the 2.5 μM present in the external medium, and is consistent with a Nernstian uptake of MitoSNO.
# [3] = test system: liver mitochondria; assay: S-nitrosation of mitochondrial protein thiols (chemiluminescence SNO assay); format: biochemical, rat; settings: 500 μM
# Method: FIG. 11 is a series of graphs showing S-nitrosation of mitochondrial thiols by MitoSNAP. (a) Time course of S-nitrosation of mitochondrial proteins by MitoSNAP. Liver mitochondria (1 mg protein) were incubated in 1 ml KCl buffer supplemented with rotenone and succinate in the presence of 5 μM MitoSNAP. At various times mitochondria were treated with 10 mM N-ethylmaleimide (NEM), isolated by centrifugation and the S-nitrosothiol content assessed. Data are of a typical experiment showing means±range of duplicate samples for each time point, each measured in duplicate. The experiment was repeated twice. (b) S-nitrosation of mitochondrial proteins by different concentrations of MitoSNAP and SNAP. Aliquots of liver mitochondria were incubated with the indicated concentrations of MitoSNAP or SNAP for […] in the presence or absence of 500 nM FCCP and then assessed for S-nitrosothiol content as in (a). For the +NEM sample, 10 mM NEM was added to the mitochondria and 1 min later 5 μM MitoSNAP was added and incubated for a further 2.5 min. Data are of a typical experiment showing means±range of duplicate samples for each time point, each measured in duplicate. The experiment was repeated twice. (c) S-nitrosation of cellular protein thiols by MitoSNAP. C2C12 cells were preincubated for 5 min in 2 ml cell culture medium containing either 20 μM FCCP or DMSO carrier, then 5 μM MitoSNAP or SNAP was added. After further incubation for 5 min at 37° C. in the dark, the medium was removed and the content of S-nitrosated proteins was measured. Data are means±range of the duplicate determinations. […] (d) S-nitrosation of a mitochondria-enriched cell subfraction. C2C12 cells were preincubated for 5 min in cell culture medium containing either 20 μM FCCP or dimethylsulfoxide (DMSO) carrier, then 5 μM MitoSNAP was added. After 5 min at 37° C. in the dark, the medium was removed and the cells were processed to isolate a mitochondria-enriched fraction and S-nitrosated protein was then determined Data are mean±sem of triplicate determinations (+MitoSNO1), or mean±range of duplicate determinations (+FCCP). (e & f) Visualisation of S-nitrosated mitochondrial proteins by copper/ascorbate-dependent labelling of thiols with a Cy3 fluorophore. Liver (e) or heart (f) mitochondria (1 mg protein) were incubated in 1 ml KCl buffer supplemented with rotenone and succinate in the presence of no additions, 10 μM MitoSNAP or 500 μM diamide for 5 min. S-nitrosated thiols were then selectively tagged with Cy3 maleimide and protein (10 μg) was then separated on a 12.5% SDS PAGE gel which was stained with coomassie blue and scanned for Cy3 fluorescence. The Cy3 fluorescence (SNO) and coomassie staining (coomassie) of each gel is shown.
# FIG. 13 is a trace and graph showing limited S-nitrosation of mitochondria by DetaNONOate. […] Where indicated 500 μM DetaNONOate was added and the concentration of NO^• was measured over time, before 5 μM OxyHb was added. […] Then protein pellets were resuspended and processed for analysis of protein S-nitrosothiols. Control incubations in the presence of 10 mM NEM were also carried out. Data are means±range of two independent experiments each being the average of four mitochondrial incubations.
# Nitrite, nitric oxide and S-nitrosothiol measurements. Nitrite was analyzed by the Griess assay (Molecular Probes). Nitric oxide was measured using an NO^• electrode (World Precision Instruments Ltd, UK) connected to an Apollo 4000 Free Radical Analyser. The electrode was inserted into a stirred, sealed 3 ml chamber with a Clark type O2 electrode (Rank Brothers, UK) built into its base and was thermostatted at 37° C. The NO^• electrode was calibrated by adding SNAP to argon-purged, saturated CuCl. OxyHb was prepared by reduction of bovine methemoglobin with sodium dithionite.
smiles,measurement,setting,value
"CO/C(=C/C(N)=O)[C@H](C)[C@H](/C=C/c1csc(-c2csc([C@@H](C)/C=C/C=C/C(C)C)n2)n1)OC [myxathiazol, reference compound]",effect on steady-state extracellular pO2 during hypoxia,[1],increased extracellular O2
O=NSCCCC[P+](c1ccccc1)(c1ccccc1)c1ccccc1.[Br-] [MitoSNO],amount taken up into 3 mg protein,"[2]; 5 μM MitoSNO, succinate",7.5 nmol
same,uptake by isolated mitochondria,"[2]; energized with 10 mM succinate, reversed by FCCP",taken up by isolated mitochondria
same,concentration within mitochondria,[2]; mitochondrial volume ~0.5 μl/mg protein,~5 mM
same,"amount taken up into the mitochondria, as part of the initial external concentration of 5 μM","[2]; rat liver mitochondria 1 mg protein/ml, 5 μM MitoSNO, succinate",~2.5 µM
same,effect on mitochondrial respiration,"[2]; rat liver mitochondria, 5 μM MitoSNO",inhibited respiration by NO release
same,concentration relative to the external medium,[2]; relative to 2.5 μM in the external medium,2000 fold
"NCCN(CCN)/[N+]([O-])=N/O [Deta-NONOate, 3,3-bis(aminoethyl)-1-hydroxy-2-oxo-1-tri azene, reference compound]",NO concentration generated compared with 5 μM MitoSNAP,[3],five to ten-fold greater
same,S-nitrosation less than that caused by 5 μM MitoSNAP,[3],~30 fold
same,S-nitrosation of mitochondrial proteins,[3]; 5 min,~20 pmol SNO/mg protein
